According to US20110111417A1, “METHODS AND KITS FOR MONITORING THE EFFECTS OF IMMUNOMODULATORS ON ADAPTIVE IMMUNITY” (priority 2008, published 2011):

What was measured:
germinal centers = assay: Immunohistochemistry of mouse spleen cryosections (Bcl-6 germinal centers, CD3 T cells), scored by pathologist; format: in vivo
Description: (§1) Female C57BL/6 mice (Charles River Laboratories, Bedford, Mass.) were used in these studies and treated with a beta-carboline, N-(6-chloro-7-methoxy-9H-beta-carbolin-8-yl)-2-methyl-nicotinamide (ML120B) following three different treatment regimens, A, B, and C. After the treatment, animals were euthanized and tissues were collected and frozen. Germinal centers were identified by immunohistochemistry (IHC) of cryosections (6 μm) using an antibody to mouse Bcl-6. T cells also were identified by IHC of serial cryosections, using an antibody to mouse CD3. The size and/or frequency of germinal centers and T cells were scored by a board-certified anatomic pathologist, using a 0 (low) to 4 (high) scale.
(§2) Mice were given a single oral dose of ML120B as indicated (n=4/group) for 6 hours. The level of mouse mu heavy chain germline transcript was measured in RNA isolated from serial cryosections by qRT-PCR.
(§3) Mice were given a single oral dose of ML120B as indicated (n=4/group) for 18 hours. The level of mouse mu heavy chain germline transcript was measured in RNA isolated from serial cryosections by qRT-PCR.
Mice were given twice daily oral dose of ML120B by gavage, as indicated (n=4/group) for four days. The level of mouse mu, gamma 3 and gamma 1 heavy chain germline transcript, AICDA transcript, gamma 1 & 2 circle transcript and 18S rRNA were measured in RNA isolated from serial cryosections by qRT-PCR. […] Germinal centers expressing Bcl-6 decreased 10-fold at 300 mg/kg (FIG. 3). Germline transcripts mu, gamma 3 and gamma 1 decreased from 10-1000-fold at 300 mg/kg (FIG. 3). Transcripts encoding AICDA decreased 100-1000-fold at 300 mg/kg (FIG. 3). Circle transcript gamma 1&2 decreased 10-fold at 100 mg/kg (FIG. 3).

[1] = test system: switch transcripts in mouse spleens; assay: qRT-PCR of switch transcripts in mouse spleens; format: in vivo; details: spleen
Description: as §1
Total ribonucleic acid (RNA) was isolated from 10 spleen cryosections, each […], using the RNEASY® Universal Tissue 8000 Kit (QIAGEN Inc., Valencia, Calif.) on a BIOROBOT® 8000 Workstation (QIAGEN INC., Valencia, Calif.), and deoxyribonucleic acidase (DNASE)-treated according to the manufacturer's protocol. The purity and yield of the RNA were assessed via spectrophotometry from 220 to 750 nm using the NANODROP® ND-1000 (NANODROP Technologies, Wilmington, Del.). The integrity of the RNA was measured with the RNA 6000 NANO LABCHIP® Kit (AGILENT Technologies, Foster City, Calif.) on an AGILENT 2100 Bioanalyzer (AGILENT Technologies, Foster City, Calif.) and calculated using the RNA integrity number (RIN) algorithm (Schroeder et al. (2006) BMC Mol. Biol. 7:3). Deoxyribonucleic acidase-treated RNA was extracted from the samples and stored at −80° C. First strand complementary deoxyribonucleic acid (cDNA) synthesis was performed using a TAQMAN® Gold RT Master Mix (Applied Biosystems, Foster City, Calif.) according to the manufacturer's protocol, except that both oligothymidylic (oligo[dT]) and random hexamers were used for priming. The quality of synthesized cDNA was assessed by generating expression profiles of endogenous reference genes with a real-time polymerase chain reaction (PCR) system, the ABI PRISM® 7900HT Sequence Detection System (Applied Biosystems, Foster City, Calif.). Complementary deoxyribonucleic acid samples were stored at −20° C.
Sequences for all biomarkers (Table 1) were derived from mouse and human deoxyribonucleic acid (DNA) sequence (GENBANK® database [online] maintained by National Center for Biotechnology Information, Bethesda, Md.). Quantitative reverse-transcriptase polymerase chain reaction assays were performed on an ABI PRISM® 7900HT Sequence Detection System (Applied Biosystems, Inc. (Foster City, Calif.) using a SYBR-green detection system (Qiagen Inc., Valencia, Calif.). All quantitative assays were run using universal thermal cycling parameters: hold at 95° C. for 2 minutes to activate the DNA polymerase, then run 40 three-part cycles (95° C. for 20 seconds, 58° C. for 20 seconds, and 76° C. for 20 seconds). Data were analyzed using sequence detection system (SDS) software, Version 1.7 (Applied Biosystems, Inc. (Foster City, Calif.). […] From each amplification plot, a threshold cycle (Ct) value was calculated. […] The Ct values were exported to an EXCEL® (MICROSOFT Corp., Redmond, Wash.) spreadsheet and relative expression (x) was calculated as shown in equation 2.
as §2, §3
Mice were given twice daily oral dose of ML120B by gavage, as indicated (n=4/group) for four days. The level of mouse mu, gamma 3 and gamma 1 heavy chain germline transcript, AICDA transcript, gamma 1 & 2 circle transcript and 18S rRNA were measured in RNA isolated from serial cryosections by qRT-PCR. […]

[2] = single oral dose 300 mg/kg, 18 hours
[3] = single oral dose, within first 6 hours
[4] = twice daily oral 300 mg/kg, four days

**Q.** Which results are given for `COc1c(Cl)cc2c([nH]c3cnccc32)c1NC(=O)c1cccnc1C` [ML120B, N-(6-chloro-7-methoxy-9H-beta-carbolin-8-yl)-2-methyl-nicotinamide]?
**A.** reduction in germinal centers (germinal centers; [2]): 10 fold; frequency of T cells (germinal centers; single oral dose, 6 hours): remained unchanged; frequency of T cells (germinal centers; single oral dose, 18 hours): remained unchanged; decrease in frequency of germinal centers (germinal centers; [3]): 50%; decrease in germinal centers expressing Bcl-6 (germinal centers; [4]): 10 fold; reduction in mu germline transcripts [1, 2]: 1000 fold; level of 18S rRNA ([1]; single oral dose, 18 hours): remained unchanged; decrease in level of mu germline transcripts [1, 3]: 50%; decrease in circle transcript gamma 1&2 ([1]; twice daily oral 100 mg/kg, four days): 10 fold; decrease in germline transcripts mu, gamma 3 and gamma 1 [1, 4]: 10-1000 fold; decrease in transcripts encoding AICDA [1, 4]: 100-1000 fold; level of 18S rRNA ([1]; twice daily oral, four days): remained unchanged
